Experimental data as given in US12383578B2, “Carbazate-activated polyvinyl alcohol (PVAC) as a polymer-based antitumoral agent” (CREMED AB (PUBL), priority 2019, dated 2025).

Columns and labels:
[1] = test system: GIST-T1 cells; assay: Cell viability assay (CellTiter-Glo, ATP-based); parameters: species or system human; conditions: biologically relevant concentrations
Protocol: 0.25×10^4-1×10^4 GIST-T1 cells were seeded into each well in a 96-well plate. PVAC, EC, and PVA were added into each well or vehicle (deionized water) with subsequent incubation for 24 or 48 hours. CellTiter-Glo assay (Promega, MI, USA) is an ATP-based luminometric method that was performed according to protocol. In brief, cells were removed from incubator to allow adjust to room temperature after which 100 μL of room temperature CellTiter-Glo was added to each well. The plates were put on a shaker for 5-10 min. Cells rested for 5-10 min before measurement on an EnVision 2103 Multilabel Reader (Perkin Elmer, MA, USA).

[2] = test system: MDA-MB-231 tumor cells; conditions: mouse, in vivo
Protocol: Following injection of MDA-MB-231 cells into athymic nude mice the animals were monitored twice weekly recording weight, general health and tumor size. When the average tumor size was approximately 100 μL the animals were stratified into three groups of 12 mice per group based on tumor size. All three groups were subjected to 28 days of twice-weekly intra/peri tumoral injections at a volume of 100 μL per injection. One group served as a control group and received NaCl (vehicle) injections. The remaining two groups received different doses of PVAC, as described above. The animals were euthanized on Day 29 and the tumors were excised, weighed, and divided into two parts handled as described above.

## CCOC(=O)NN [EC, ethyl carbazate]
[1]
  Cellular viability: did not reduce cellular viability

## Poly[1-hydroxyethylene)-ran-(1-hydrazinecarboxylatoethylene)] [PVAC]
[2]
  Animals euthanized due to infections: four
